The values that follow come from patent US20250352549A1, “SUBSTITUTED HETEROCYCLIC COMPOUND DERIVATIVES AND THEIR PHARMACEUTICAL USE” (AVELOS THERAPEUTICS INC., priority 0001, published 2025).

The target of the assay is Wild-type human active MASTL (Homo sapiens (Human), UniProt Q96GX5). Put plainly: MASTL activity assay. Particulars: ATP 18 μM, biotin tagged 40-mer ENSA peptide 10 nM, 60 minutes at room temperature, HTRF/FRET readout. The assay is classed as biochemical. On the procedure: Wild-type human active MASTL (154 pM) was incubated in assay buffer (50 mM HEPES, 100 mM NaCl, 0.1 mM EGTA, 10 mM MgCl2, 0.01% Tween-20, 0.5 mM TCEP, pH 7.5) with biotin tagged 40-mer ENSA peptide (10 nM), test compound and ATP (18 μM) for 60 minutes at room temperature. Test compounds were assayed using a 12-point dose range consisting of a 0, DMSO control and 10 sequential doses consisting from 0.0005, 0.002, 0.005, 0.014, 0.04, 0.12, 0.37, 1.11, 3.33 and 10 μM. The DMSO concentration was the same (1%) in all samples. An equal volume of detection buffer (assay buffer+267.5 pM Ab-K, 1.25 nM SA-D2, 20 mM EDTA and 400 mM KF) was added to stop the reaction to make a final volume of 20 μl, RT for 60 mins. Activity was measured using a plate reader (PerkinElmer EnSight) by the FRET signal generated between SA-D2 (streptavidin-D2) and Ab-K (anti-phospho-Serine 67 ENSA antibody (rabbit polyclonal, using standard techniques by a commercial supplier) conjugated to Cryptate). HTRF reagents (CisBio) were prepared as per the manufacturer recommendations. The 40-mer biotin-tagged ENSA peptide (synthesised by Bionics) used was based around Serine 67 on ENSA ([…]).
Chain of Wild-type human active MASTL (Q96GX5 whole entry): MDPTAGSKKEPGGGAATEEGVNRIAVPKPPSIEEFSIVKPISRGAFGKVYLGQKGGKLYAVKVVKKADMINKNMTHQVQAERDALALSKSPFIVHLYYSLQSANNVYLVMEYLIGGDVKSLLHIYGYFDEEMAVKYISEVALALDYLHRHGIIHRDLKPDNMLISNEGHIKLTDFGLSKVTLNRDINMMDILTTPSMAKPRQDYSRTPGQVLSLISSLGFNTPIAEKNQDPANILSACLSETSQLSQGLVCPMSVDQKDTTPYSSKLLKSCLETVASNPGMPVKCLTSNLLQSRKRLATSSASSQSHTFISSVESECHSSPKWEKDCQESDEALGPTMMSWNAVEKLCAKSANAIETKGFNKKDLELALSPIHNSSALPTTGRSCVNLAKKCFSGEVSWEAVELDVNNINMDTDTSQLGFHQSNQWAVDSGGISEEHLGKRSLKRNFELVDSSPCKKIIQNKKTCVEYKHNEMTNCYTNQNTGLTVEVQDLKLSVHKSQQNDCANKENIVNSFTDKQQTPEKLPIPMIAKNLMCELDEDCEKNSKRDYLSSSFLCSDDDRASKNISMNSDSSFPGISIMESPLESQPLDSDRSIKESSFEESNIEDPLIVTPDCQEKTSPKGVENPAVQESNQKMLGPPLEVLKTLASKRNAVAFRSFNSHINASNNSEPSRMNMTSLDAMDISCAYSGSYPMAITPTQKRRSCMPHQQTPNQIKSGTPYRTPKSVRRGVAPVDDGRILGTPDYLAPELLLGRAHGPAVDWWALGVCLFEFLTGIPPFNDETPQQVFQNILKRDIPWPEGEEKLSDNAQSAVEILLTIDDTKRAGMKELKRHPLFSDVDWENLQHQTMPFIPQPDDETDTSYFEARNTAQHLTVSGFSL

As to `CC[C@H](Nc1nc(N)nc(-c2ccc3cnc(C)n3c2)n1)c1ccc(F)nc1` (single isomer, unassigned) [Example 141B, N2-[(1R or 1S)-1-(6-fluoro-3-pyridyl)propyl]-6-(3-methylimidazo[1,5-a]pyridin-6-yl)-1,3,5-triazine-2,4-diamine], the IC50 lay in the range of 500 to 1000 nM.

Regarding `CNc1nc(NCC(O)c2cccc(Cl)c2Cl)cc(-c2ccc3cnc(C)n3c2)n1` (single isomer, unassigned) [Example 143B, (1R or 1S)-1-(2,3-dichlorophenyl)-2-[[2-(methylamino)-6-(3-methylimidazo[1,5-a]pyridin-6-yl)pyrimidin-4-yl]amino]ethanol], the concentration for half-maximal inhibition (IC50) is more than 1000 nM.

In the case of `Cc1ncc2ccc(-c3nc(N)nc(NC(c4c[nH]c(C(F)(F)F)n4)C4CCCCC4)n3)cn12` (single isomer, unassigned) [Example 153B, N4-[(S or R)-cyclohexyl-[2-(trifluoromethyl)-1H-imidazol-4-yl]methyl]-6-(3-methylimidazo[1,5-a]pyridin-6-yl)-1,3,5-triazine-2,4-diamine], the IC50 fell in the range of 1 to 500 nM. The figure for `CC[C@@H](Nc1nc(N)nc(-c2ccc3cnc(C)n3c2)n1)c1ccc(F)nc1` (single isomer, unassigned) [Example 141A, N2-[(1R or 1S)-1-(6-fluoro-3-pyridyl)propyl]-6-(3-methylimidazo[1,5-a]pyridin-6-yl)-1,3,5-triazine-2,4-diamine] is 500 to 1000 nM; for `Cc1ncc2ccc(-c3nc(N)nc(NC[C@H](O)c4cccc(Cl)c4Cl)n3)cn12` (single isomer, unassigned) [Example 146A, (1S or 1R)-[[4-amino-6-(3-methylimidazo[1,5-a]pyridin-6-yl)-1,3,5-triazin-2-yl]amino]-1-(2,3-dichlorophenyl) ethanol] it is 1 to 500 nM. With `Cc1ncc2ccc(-c3nc(N)nc(N[C@H](CC(C)C)c4c[nH]c(C(F)(F)F)n4)n3)cn12` (single isomer, unassigned) [Example 152A, 6-(3-methylimidazo[1,5-a]pyridin-6-yl)-N4-[(1S or 1R)-3-methyl-1-[2-(trifluoromethyl)-1H-imidazol-4-yl]butyl]-1,3,5-triazine-2,4-diamine] the figure was 1 to 500 nM; with `CC(C)CC(Nc1nc(N)nc(-c2ccc3cnn(C)c3c2)n1)c1c[nH]c(C(F)(F)F)n1` (single isomer, unassigned) [Example 180A, 6-(1-methylindazol-6-yl)-N4-[(1R or 1S)-3-methyl-1-[2-(trifluoromethyl)-1H-imidazol-4-yl]butyl]-1,3,5-triazine-2,4-diamine], more than 1000 nM. The figure for `Cc1ncc2ccc(-c3nc(N)nc(N[C@@H](CC4CC4)c4c[nH]c(C(F)(F)F)n4)n3)cn12` (single isomer, unassigned) [Example 7B, N4-[(1S or 1R)-2-cyclopropyl-1-[2-(trifluoromethyl)-1H-imidazol-4-yl]ethyl]-6-(3-methylimidazo[1,5-a]pyridin-6-yl)-1,3,5-triazine-2,4-diamine] is 1 to 500 nM; for `CNc1nc(N[C@@H](c2ccn(C(F)F)n2)C(C)C)nc(-c2ccc3cnn(C)c3c2)n1` (single isomer, unassigned) [Example 29A, N4-[(1S or 1R)-1-[1-(difluoromethyl)pyrazol-3-yl]-2-methyl-propyl]-N2-(trideuteriomethyl)-6-[1-(trideuteriomethyl)indazol-6-yl]-1,3,5-triazine-2,4-diamine] it is 1 to 500 nM.

Regarding `Cc1ncc2ccc(-c3nc(N)nc(N[C@@H](CC(C)C)c4c[nH]c(C(F)(F)F)n4)n3)cn12` (single isomer, unassigned) [Example 152B, 6-(3-methylimidazo[1,5-a]pyridin-6-yl)-N4-[(1S or 1R)-3-methyl-1-[2-(trifluoromethyl)-1H-imidazol-4-yl]butyl]-1,3,5-triazine-2,4-diamine], the IC50 was 1 to 500 nM. For `CNc1nc(N[C@H](c2c[nH]c(C(F)(F)F)n2)C(C)C)nc(-c2ccc3cnc(C)n3c2)n1` (single isomer, unassigned) [Example 149B, N2-methyl-6-(3-methylimidazo[1,5-a]pyridin-6-yl)-N4-[(1S or 1R)-2-methyl-1-[2-(trifluoromethyl)-1H-imidazol-4-yl]propyl]-1,3,5-triazine-2,4-diamine], the IC50 is 1 to 500 nM. The figure for `CC(C)C(Nc1nc(N)nc(-c2ccc3c(cnn3C)c2)n1)c1ccn(C(F)F)n1` (single isomer, unassigned) [Example 47A, (R or S)—N2-(1-(1-(difluoromethyl)-1H-pyrazol-3-yl)-2-methylpropyl)-6-(1-methyl-1H-indazol-5-yl)-1,3,5-triazine-2,4-diamine] is 1 to 500 nM. The figure for `CNc1nc(N[C@@H](c2c[nH]c(C(F)(F)F)n2)C(C)C)nc(-c2ccc3cnc(C)n3c2)n1` (single isomer, unassigned) [Example 149A, N2-methyl-6-(3-methylimidazo[1,5-a]pyridin-6-yl)-N4-[(1S or 1R)-2-methyl-1-[2-(trifluoromethyl)-1H-imidazol-4-yl]propyl]-1,3,5-triazine-2,4-diamine] is 1 to 500 nM. The figure for `Cc1ncc2ccc(-c3nc(N)nc(N[C@@H](c4ccc(F)cn4)C(C)C)n3)cn12` (single isomer, unassigned) [Example 136A, N2-[(1R or 1S)-1-(5-fluoro-2-pyridyl)-2-methyl-propyl]-6-(3-methylimidazo[1,5-a]pyridin-6-yl)-1,3,5-triazine-2,4-diamine] is 1 to 500 nM; for `CC(C)CC(Nc1nc(N)nc(-c2ccc3cnn(C)c3c2)n1)c1c[nH]c(C(F)(F)F)n1` (single isomer, unassigned) [Example 180B, 6-(1-methylindazol-6-yl)-N4-[(1R or 1S)-3-methyl-1-[2-(trifluoromethyl)-1H-imidazol-4-yl]butyl]-1,3,5-triazine-2,4-diamine] it is 1 to 500 nM; for `Cc1ncc2ccc(-c3nc(N)nc(N[C@@H](c4c[nH]c(C(F)(F)F)n4)C(C)C)n3)cn12` (single isomer, unassigned) [Example 142A, 6-(3-methylimidazo[1,5-a]pyridin-6-yl)-N2-[(1R or 1S)-2-methyl-1-[2-(trifluoromethyl)-1H-imidazol-4-yl]propyl]-1,3,5-triazine-2,4-diamine] it is 1 to 500 nM.

`Cc1ncc2ccc(-c3nc(N)nc(NC(c4c[nH]c(C(F)(F)F)n4)C4CCCCC4)n3)cn12` (single isomer, unassigned) [Example 153A, N4-[(S or R)-cyclohexyl-[2-(trifluoromethyl)-1H-imidazol-4-yl]methyl]-6-(3-methylimidazo[1,5-a]pyridin-6-yl)-1,3,5-triazine-2,4-diamine]: the IC50 was 1 to 500 nM. With `Cc1ncc2ccc(-c3nc(N)nc(N[C@H](c4c[nH]c(C(F)(F)F)n4)C(C)C)n3)cn12` (single isomer, unassigned) [Example 142B, 6-(3-methylimidazo[1,5-a]pyridin-6-yl)-N2-[(1R or 1S)-2-methyl-1-[2-(trifluoromethyl)-1H-imidazol-4-yl]propyl]-1,3,5-triazine-2,4-diamine] the figure was 1 to 500 nM; with `Cc1nc([C@@H](Nc2nc(N)nc(-c3ccc4cnc(C)n4c3)n2)C(C)C)c[nH]1` (single isomer, unassigned) [Example 155B, 6-(3-methylimidazo[1,5-a]pyridin-6-yl)-N4-[(1S or 1R)-2-methyl-1-(2-methyl-1H-imidazol-4-yl)propyl]-1,3,5-triazine-2,4-diamine], 1 to 500 nM; with `Cc1ncc2ccc(-c3nc(N)nc(NC[C@@H](O)c4cccc(Cl)c4Cl)n3)cn12` (single isomer, unassigned) [Example 146B, (1S or 1R)-[[4-amino-6-(3-methylimidazo[1,5-a]pyridin-6-yl)-1,3,5-triazin-2-yl]amino]-1-(2,3-dichlorophenyl) ethanol], 1 to 500 nM. With `CNc1nc(NC[C@H](O)c2cccc(Cl)c2Cl)cc(-c2ccc3cnc(C)n3c2)n1` (single isomer, unassigned) [Example 143A, (1R or 1S)-1-(2,3-dichlorophenyl)-2-[[2-(methylamino)-6-(3-methylimidazo[1,5-a]pyridin-6-yl)pyrimidin-4-yl]amino]ethanol] the figure was 1 to 500 nM; with `CNc1nc(N[C@H](c2ccn(C(F)F)n2)C(C)C)nc(-c2ccc3cnn(C)c3c2)n1` (single isomer, unassigned) [Example 29B, N4-[(1S or 1R)-1-[1-(difluoromethyl)pyrazol-3-yl]-2-methyl-propyl]-N2-(trideuteriomethyl)-6-[1-(trideuteriomethyl)indazol-6-yl]-1,3,5-triazine-2,4-diamine], more than 1000 nM. `Cc1ncc2ccc(-c3nc(N)nc(N[C@H](CC4CC4)c4c[nH]c(C(F)(F)F)n4)n3)cn12` (single isomer, unassigned) [Example 7A, N4-[(1S or 1R)-2-cyclopropyl-1-[2-(trifluoromethyl)-1H-imidazol-4-yl]ethyl]-6-(3-methylimidazo[1,5-a]pyridin-6-yl)-1,3,5-triazine-2,4-diamine] yielded an IC50 of 1 to 500 nM.
